From publication PMC12260535, “A novel thiazole-sulfonamide hybrid molecule as a promising dual tubulin/carbonic anhydrase IX inhibitor with anticancer activity” (Frontiers in Chemistry, 2025)
Like-named read-outs stand apart in the source and are kept apart here.

Columns and labels:
[1] = system: tubulin; conditions: read-out: tubulin polymerization IC50, cited from earlier work
[2] = molecular target: CA IX; conditions: cited from earlier work
[3] = system: A549 (lung carcinoma) cells; experiment: MTT antiproliferative assay, A549; assay type: cell-based; conditions: Homo sapiens, read-out: IC50 A549
Procedure: (§1) . All cell lines were obtained from the Vacsera Cell Culture Library, Tissue Culture Unit, Cairo, Egypt, with ATCC certification. […] Check Appendix A for additional information.
(§2) . Cells were cultured in their respective recommended media supplemented with 10% fetal bovine serum and 1% penicillin-streptomycin and maintained at 37 °C in a humidified atmosphere containing 5% CO₂. Cell viability was assessed using the MTT assay, following the protocol provided with the In Vitro Toxicology Assay Kit, MTT Based (Sigma-Aldrich, TOX-1). Briefly, cells were seeded in 96-well plates at a density of 5 × 10³ cells/well and allowed to adhere overnight. […] Subsequently, 10 µL of reconstituted MTT solution (5 mg/mL in serum-free, phenol red-free medium) was added to each well and incubated for 3 h at 37 °C. The resulting formazan crystals were dissolved by adding 100 µL of the MTT Solubilization Solution, and the plates were gently shaken to ensure complete solubilization. Absorbance was recorded at 570 nm with a reference wavelength of 690 nm using a microplate reader. Cell viability was expressed as a percentage relative to untreated control cells. All experiments were conducted in triplicate, and IC₅₀ values were determined using linear regression analysis.

[4] = system: 786-O (renal carcinoma) cells; experiment: MTT antiproliferative assay, 786-O; assay type: cell-based; conditions: Homo sapiens, read-out: IC50 786-O
Procedure: (§3) All cell lines were obtained from the Vacsera Cell Culture Library, Tissue Culture Unit, Cairo, Egypt, with ATCC certification. The assay enabled the detection of membrane-compromised cells based on the fluorescence intensity of DNA binding. Check Appendix A for additional information.
as §2, with “Cells” for “. Cells”

[5] = system: MCF-7 (breast adenocarcinoma) cells; experiment: MTT antiproliferative assay, MCF-7; assay type: cell-based; conditions: Homo sapiens, read-out: IC50 MCF-7
Procedure: as §1, §2

[6] = system: p53; experiment: p53 ELISA in HT-29 cells; assay type: cell-based, human
[7] = system: Bax; experiment: Bax ELISA in HT-29 cells; assay type: cell-based, human
Procedure: Changes in Bax levels were quantified in treated cell lysates to assess the apoptotic response. Comprehensive assay details are available in Appendix A (Supplementary Material).
This sandwich-based immunoassay utilizes a monoclonal antibody specific for human BAX-α to capture and quantify the protein in cell lysates. Cells were lysed using the provided Cell Lysis Buffer, freshly supplemented with phenylmethylsulfonyl fluoride (PMSF, 1 mM) and protease inhibitor cocktail (PIC, 0.5 µL/mL). Lysates were incubated on ice, vortexed, and centrifuged at 16,000 rpm for 15 minutes at 4 °C. The supernatants were collected and diluted with the kit's Assay Buffer. A standard curve was generated using BAX-α standards with concentrations of 62.5, 125, 250, 500, 1000, and 2000 ng/mL. The corresponding net absorbance values (after subtracting the average blank OD of 0.023) were 0.110, 0.192, 0.338, 0.781, 1.443, and 2.496, respectively. Absorbance was measured at 450 nm with a reference wavelength of 570–590 nm. BAX concentrations in the samples were calculated using linear regression analysis based on the standard curve obtained. The assay provided a sensitive and quantitative measure of BAX modulation in response to compound 7.

[8] = system: Bcl-2; experiment: Bcl-2 ELISA in HT-29 cells; assay type: cell-based, human
Procedure: Absorbance was measured at 450 nm to determine changes in Bcl-2 expression in response to treatment. A full description of the assay protocol is included in Appendix A (Supplementary Material).
The assay is based on a sandwich ELISA format, where human Bcl-2 is captured by a monoclonal antibody coated on a microwell plate and detected using a biotin-conjugated anti-Bcl-2 antibody followed by Streptavidin-HRP and TMB substrate. Cells were lysed using the supplied Lysis Buffer at a concentration of 5 × 10⁶ cells/mL and incubated for 1 hour at room temperature with gentle shaking. Lysates were clarified by centrifugation at 1000 × g for 15 minutes, and the supernatants were collected for immediate use or stored at –80 °C. For the assay, 20 µL of sample was added to wells along with 80 µL of Sample Diluent, followed by 50 µL of diluted biotin-conjugate. After a 2-hour incubation at room temperature, plates were washed and incubated with diluted Streptavidin-HRP for 1 hour. […] Absorbance was measured at 450 nm with optional correction between 610–650 nm. […] The corresponding absorbance values ranged from approximately 0.121 to 2.461, with a background (blank) absorbance of 0.023. Net absorbance values were calculated by subtracting the blank from each standard, and the resulting data were used to construct a calibration curve. […]

[9] = system: caspase-3; experiment: Active caspase-3 ELISA in HT-29 cells; assay type: cell-based, human
Text: This sandwich ELISA detects caspase-3 cleaved at Asp175/Ser176, enabling sensitive colorimetric measurement at 450 nm. Additional procedural details are provided in Appendix A (Supplementary Material).
This assay is based on a solid-phase sandwich ELISA principle, where an anti-human caspase-3 monoclonal antibody is pre-coated onto a microplate. Cell lysates or standards are captured by this antibody, followed by the addition of a rabbit polyclonal detection antibody specific for active caspase-3 cleaved at Asp175/Ser176. Detection is then performed using HRP-conjugated anti-rabbit IgG and TMB substrate. Cell lysates were prepared in protease inhibitor-supplemented cell extraction buffer and clarified by centrifugation. Samples were diluted in Standard Diluent Buffer and added to the wells along with a standard curve of human active caspase-3. The standard concentrations included 39, 78, 156, 313, 625, 1250, and 2500 ng/mL, which yielded optical density (OD) readings ranging from 0.192 to 2.733. A blank reading of 0.018 was subtracted from each standard OD, and the resulting data were used to generate a standard curve. […] After color development, the reaction was stopped with acid, and absorbance was read at 450 nm. The concentration of active caspase-3 in treated samples was determined using linear regression analysis of the standard curve. […]

[10] = system: caspase-9; experiment: Caspase-9 ELISA in HT-29 cells; assay type: cell-based, human
Text: This assay employs a sandwich ELISA format, utilizing a specific capture antibody and an HRP-conjugated detection system, with absorbance measured at 450 nm. A detailed methodology is provided in Appendix A (Supplementary Material).
This solid-phase sandwich ELISA employs a monoclonal antibody pre-coated on a 96-well microplate to capture caspase-9 from samples. A rabbit polyclonal detection antibody specific to human caspase-9 is subsequently added, followed by an HRP-conjugated anti-rabbit IgG and TMB substrate for colorimetric detection. The intensity of the yellow product formed after stopping the reaction with phosphoric acid is proportional to the amount of caspase-9 present and is measured at 450 nm. […] Lysates were centrifuged at 1,000 × g for 15 minutes, and the clear supernatants were collected and either analyzed immediately or stored at –80 °C. […] Standard concentrations of 1.6, 3.1, 6.3, 12.5, 25, 50, and 100 ng/mL yielded OD values of 0.140, 0.167, 0.213, 0.239, 0.501, 0.799, and 1.639 respectively, with a blank reading of 0.042. Net OD values were calculated by subtracting the blank absorbance, and the standard curve was constructed accordingly. The concentration of caspase-9 in each sample was determined using linear regression analysis, and final values were adjusted by the dilution factor.

[11] = molecular target: CA I (Homo sapiens, UniProt P00915); experiment: Carbonic anhydrase inhibitor screening kit (colorimetric), CA I
Sequence of CA I (P00915 whole entry): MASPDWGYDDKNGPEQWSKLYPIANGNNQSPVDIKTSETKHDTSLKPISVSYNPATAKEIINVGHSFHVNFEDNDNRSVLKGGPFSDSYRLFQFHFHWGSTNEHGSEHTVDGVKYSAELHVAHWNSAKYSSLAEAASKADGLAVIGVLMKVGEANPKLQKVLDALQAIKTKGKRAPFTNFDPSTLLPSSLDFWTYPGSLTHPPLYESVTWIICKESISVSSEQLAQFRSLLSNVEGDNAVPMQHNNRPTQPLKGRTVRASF

[12] = molecular target: CA II (Homo sapiens, UniProt P00918); experiment: Carbonic anhydrase inhibitor screening kit (colorimetric), CA II
[13] = molecular target: CA IX (Homo sapiens, UniProt Q16790); experiment: Carbonic anhydrase inhibitor screening kit (colorimetric), CA IX
[14] = molecular target: CA XII (Homo sapiens, UniProt O43570); experiment: Carbonic anhydrase inhibitor screening kit (colorimetric), CA XII
Sequence of CA XII (O43570 25-354): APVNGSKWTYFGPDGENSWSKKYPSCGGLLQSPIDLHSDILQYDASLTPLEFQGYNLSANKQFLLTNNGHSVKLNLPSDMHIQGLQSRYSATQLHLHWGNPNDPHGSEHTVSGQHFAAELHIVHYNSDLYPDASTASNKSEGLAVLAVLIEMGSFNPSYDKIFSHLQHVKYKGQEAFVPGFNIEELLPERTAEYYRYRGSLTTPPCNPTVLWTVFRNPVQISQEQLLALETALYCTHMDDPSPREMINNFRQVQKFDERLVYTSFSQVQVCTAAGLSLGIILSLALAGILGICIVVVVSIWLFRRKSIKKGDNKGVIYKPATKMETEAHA

[15] = system: HT-29 (colon adenocarcinoma) cells; experiment: MTT antiproliferative assay, HT-29; assay type: cell-based; conditions: Homo sapiens, 48 h, HT-29 colorectal cancer cells
Procedure: as §3
as §2, with “Cells” for “. Cells”

[16] = system: WI-38 normal lung fibroblast cells; experiment: MTT cytotoxicity assay, normal WI-38 fibroblasts; assay type: cell-based; conditions: Homo sapiens, 48 h, WI-38 normal fibroblasts
Procedure: as §3
as §2, with “Cells” for “. Cells”

## COc1cc(-c2csc(NC(=O)CNc3ccc([N+](=O)[O-])cc3)n2)cc(OC)c1OC [compound VIII]
[1]; ref El-Abd et al., 2022
  IC50: 2 µM

## NS(=O)(=O)c1ccc(NC(=O)Nc2cc3cc(Br)ccc3o2)cc1 [Compound II]
[2]; ref Shaldam et al., 2021
  Ki: 0.0055 µM

## Cc1[nH]c(=S)sc1C(=O)/C=C/c1ccc(S(N)(=O)=O)cc1 [Compound 7, (E)-4-(3-(4-methyl-2-thioxo-2,3-dihydrothiazol-5-yl)-3-oxoprop-1-en-1-yl)benzenesulfonamide]
[3]; A549, 48 h
  IC50: 6.82 µM
[4]; 786-0, 48 h
  IC50: 1.56 µM
[5]; MCF7, 48 h
  IC50: 3.63 µM
[6]; ELISA, DMSO control 150.66 ± 3.33
  P53 Conc: 1,224.00 ± 6.67 pg/mL
[6]; versus DMSO control
  P53 Fold change: 8.12
[7]; ELISA, DMSO control 68.50 ± 1.67
  Bax Conc: 392.25 ± 14.58 pg/mL
[7]; versus DMSO control
  Bax Fold change: 5.73
[8]; ELISA, DMSO control 19.25 ± 0.43
  Bcl-2 Conc: 6.212 ± 0.093 pg/mL
[8]; versus DMSO control
  Bcl-2 Fold change: 0.323
[9]; ELISA, DMSO control 57.64 ± 1.36
  Caspase 3 Conc: 511.27 ± 13.18 pg/mL
[9]; versus DMSO control
  Caspase 3 Fold change: 8.87
[10]; ELISA, DMSO control 5.09 ± 0.26
  Caspase-9 Conc: 49.39 ± 1.13 ng/mL
[10]; versus DMSO control
  Caspase-9 Fold change: 9.70
[11]
  IC50: 1.9 ± 0.25 µM
[12]
  IC50: 0.381 ± 0.045 µM
[13]
  IC50: 0.021 ± 0.004 µM
[14]
  IC50: 0.114 ± 0.012 µM

## COc1ccc2[nH]cc(/C=N/Nc3nc(-c4cccc(Br)c4)cs3)c2c1 [Compound VII]
[1]; ref Wang et al., 2024
  IC50: 1.68 µM

## CCOc1ccc(-c2sc(N)nc2-c2ccc(OC)c3ccccc23)cc1 [compound VI]
[1]; ref Wang et al., 2021
  IC50: 3.3 µM

## COc1cc(/C=C/C(=O)c2nnn(-c3ccc(S(N)(=O)=O)cc3)c2C)cc(OC)c1OC [compound V]
[2]; ref Abdelhakeem et al., 2024
  Ki: 0.03 µM

## COc1ccc(/C=C\c2cc(OC)c(OC)c(OC)c2)cc1O [CA-4, combretastatin A-4, reference compound]
[3]; MTT assay, 48 h, A549 lung cancer cells
  IC50: 0.44 µM
[15]
  IC50: 2.15 µM
[4]; 786-0, MTT assay, 48 h, 786-O renal cancer cells
  IC50: 3.27 µM
[5]; MCF7, MTT assay, 48 h, MCF-7 breast cancer cells
  IC50: 1.82 µM
[16]
  IC50: 28.1 µM
